# Test results published in publication PMC6268061, “Investigation of the Biological Properties of (Hetero)Aromatic Thiosemicarbazones” (Molecules, 2012).
# Like-named read-outs stand apart in the source and are kept apart here.
# How the values were obtained:
# [1] = test system: Trichophyton mentagrophytes 445; assay: In vitro antifungal susceptibility, broth microdilution; assay type: cell-based; conditions: read-out: MIC (IC50) TM
# Candida glabrata 20/I = assay: as above; assay type: cell-based; conditions: Nakaseomyces glabratus, read-out: MIC (IC80) CG
# [2] = test system: photosynthetic electron transport (PET) in spinach chloroplasts; assay: Inhibition of photosynthetic electron transport (PET) in spinach chloroplasts; assay type: biochemical, Spinacia oleracea L.; conditions: DCPIP photoreduction
# Method in brief: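 PET in spinach chloroplasts was followed spectrophotometrically as DCPIP photoreduction in pH 7.2 phosphate buffer with sucrose, MgCl2 and NaCl, at 30 mg/L chlorophyll, under halogen-lamp irradiation at 22 °C. Compounds were added in DMSO. IC50 is the molar concentration halving the rate relative to untreated control.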
# Candida krusei ATCC 6258 = assay: In vitro antifungal susceptibility, broth microdilution; assay type: cell-based; conditions: Pichia kudriavzevii, read-out: MIC (IC80) CK
# [3] = Trichophyton mentagrophytes, 445, 72 h
# [4] = Trichophyton mentagrophytes, 445, 120 h
Structure (SMILES),"IC50 [1, 3] [µM]","IC50 [1, 4] [µM]",MIC (Candida glabrata 20/I; 24 h) [µM],MIC (Candida glabrata 20/I; 48 h) [µM],IC50 [2] [µM],"MIC (Candida krusei ATCC 6258; ATCC6258, 24 h) [µM]","MIC (Candida krusei ATCC 6258; ATCC6258, 48 h) [µM]"
"CN(C)C(=S)N/N=C/c1ccc(Cl)c(Cl)c1 [Compound 3h, (E)-2-(3,4-Dichlorobenzylidene)-N,N-dimethylhydrazinecarbothioamide]",31.2,62.5,500,500,329,500,500
"NC(=S)N/N=C/c1ccc(Br)cc1 [Compound 3k, (E)-2-(4-Bromobenzylidene)hydrazinecarbothioamide]",> 500,> 500,> 500,> 500,586,> 500,> 500
"CN(C)C(=S)N/N=C/c1ccc(Br)cc1 [Compound 3m, (E)-2-(4-bromobenzylidene)-N,N-dimethylhydrazinecarbothioamide]",62.5,62.5,> 500,> 500,595,> 500,> 500
